Data from PubChem BioAssay (NCI).
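A five-concentration, 48-hour dose response in 96-well plates underlies each endpoint, interpolated linearly between surrounding concentrations. TGI is the concentration that stops growth completely.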

Experiments:
Assay in all cases: inhibition of tumour cell growth, NCI panel, 48 h
SK-OV-3 ovarian = test system: SK-OV-3 ovarian
RXF 393 renal = test system: RXF 393 renal
U251 CNS = test system: U251 CNS
T-47D breast = test system: T-47D breast
UACC-62 melanoma = test system: UACC-62 melanoma
HOP-18 NSCLC = test system: HOP-18 NSCLC
SK-MEL-2 melanoma = test system: SK-MEL-2 melanoma
OVCAR-5 ovarian = test system: OVCAR-5 ovarian
SW-620 colon = test system: SW-620 colon
SF-295 CNS = test system: SF-295 CNS
DMS 114 small cell lung = test system: DMS 114 small cell lung
DLD-1 colon = test system: DLD-1 colon
SN12C renal = test system: SN12C renal
CCRF-CEM leukemia = test system: CCRF-CEM leukemia
UACC-257 melanoma = test system: UACC-257 melanoma
LOX IMVI melanoma = test system: LOX IMVI melanoma
A498 renal = test system: A498 renal
M19-MEL melanoma = test system: M19-MEL melanoma
HT29 colon = test system: HT29 colon
SNB-78 CNS = test system: SNB-78 CNS
XF 498 CNS = test system: XF 498 CNS
K-562 leukemia = test system: K-562 leukemia
SF-539 CNS = test system: SF-539 CNS
BT-549 breast = test system: BT-549 breast
LXFL 529 NSCLC = test system: LXFL 529 NSCLC
HCT-116 colon = test system: HCT-116 colon
HL-60(TB) leukemia = test system: HL-60(TB) leukemia
HCC-2998 colon = test system: HCC-2998 colon
DMS 273 small cell lung = test system: DMS 273 small cell lung
SNB-75 CNS = test system: SNB-75 CNS
CAKI-1 renal = test system: CAKI-1 renal
KM12 colon = test system: KM12 colon
SR leukemia = test system: SR leukemia
ACHN renal = test system: ACHN renal
IGROV1 ovarian = test system: IGROV1 ovarian
EKVX NSCLC = test system: EKVX NSCLC
MDA-MB-435 = test system: MDA-MB-435
SNB-19 CNS = test system: SNB-19 CNS
KM20L2 colon = test system: KM20L2 colon
PC-3 prostate = test system: PC-3 prostate
NCI-H226 lung = test system: NCI-H226 lung
A549 NSCLC = test system: A549 NSCLC
HOP-62 NSCLC = test system: HOP-62 NSCLC
SF-268 CNS = test system: SF-268 CNS
MALME-3M melanoma = test system: MALME-3M melanoma
HS 578T breast = test system: HS 578T breast
NCI/ADR-RES ovarian = test system: NCI/ADR-RES ovarian
RPMI-8226 leukemia = test system: RPMI-8226 leukemia
MCF7 breast = test system: MCF7 breast
MOLT-4 leukemia = test system: MOLT-4 leukemia
OVCAR-8 ovarian = test system: OVCAR-8 ovarian
SK-MEL-5 melanoma = test system: SK-MEL-5 melanoma
M14 melanoma = test system: M14 melanoma
HOP-92 NSCLC = test system: HOP-92 NSCLC
UO-31 renal = test system: UO-31 renal
OVCAR-3 ovarian = test system: OVCAR-3 ovarian
NCI-H460 lung = test system: NCI-H460 lung
NCI-H522 lung = test system: NCI-H522 lung
DU-145 prostate = test system: DU-145 prostate
NCI-H23 lung = test system: NCI-H23 lung
786-0 renal = test system: 786-0 renal
HCT-15 colon = test system: HCT-15 colon
TK-10 renal = test system: TK-10 renal
OVCAR-4 ovarian = test system: OVCAR-4 ovarian
SK-MEL-28 melanoma = test system: SK-MEL-28 melanoma
MDA-MB-231 breast = test system: MDA-MB-231 breast
MDA-N = test system: MDA-N
COLO 205 colon = test system: COLO 205 colon
RXF-631 renal = test system: RXF-631 renal

CC(/C=C/C=C\C=C\C=C(/C)C(=O)NC(C)CO)=C\C(C)C(O)/C(C)=C/C(C)CCc1ccccc1 (configuration not stated) was tested, and the TGI (SK-OV-3 ovarian) was 64 µM, the TGI (RXF 393 renal) was 26.6 µM and the TGI (U251 CNS) was 37.9 µM. For the same compound, the TGI (T-47D breast) was 46.4 µM, the TGI (UACC-62 melanoma) was 25.6 µM and the TGI (HOP-18 NSCLC) was 24.2 µM. It also gave a TGI (SK-MEL-2 melanoma) of 29.6 µM, a TGI (OVCAR-5 ovarian) of 31 µM and a TGI (SW-620 colon) of 28.4 µM. For the same compound, the TGI (SF-295 CNS) was 13.4 µM, the TGI (DMS 114 small cell lung) was 2.47 µM and the TGI (DLD-1 colon) was 31.6 µM. For the same compound, the TGI (SN12C renal) was 26.4 µM, the TGI (CCRF-CEM leukemia) was greater than 56.6 µM and the TGI (UACC-257 melanoma) was 12.3 µM. The TGI (LOX IMVI melanoma) was 16.5 µM, the TGI (A498 renal) was 26.7 µM and the TGI (M19-MEL melanoma) was 19.4 µM. It also gave a TGI (HT29 colon) of 25.2 µM, a TGI (SNB-78 CNS) of 25.2 µM and a TGI (XF 498 CNS) of 22 µM. It also gave a TGI (K-562 leukemia) greater than 53.6 µM, a TGI (SF-539 CNS) of 27.1 µM and a TGI (BT-549 breast) of 33.1 µM. For the same compound, the TGI (LXFL 529 NSCLC) was 18.7 µM, the TGI (HCT-116 colon) was 19.4 µM and the TGI (HL-60(TB) leukemia) was greater than 100 µM. For the same compound, the TGI (HCC-2998 colon) was 26.7 µM, the TGI (DMS 273 small cell lung) was 17.1 µM and the TGI (SNB-75 CNS) was 26.7 µM. The TGI (CAKI-1 renal) was 54.1 µM, the TGI (KM12 colon) was 19.1 µM and the TGI (SR leukemia) was greater than 59 µM. The TGI (ACHN renal) was 21.9 µM, the TGI (IGROV1 ovarian) was 20.1 µM and the TGI (EKVX NSCLC) was greater than 80.6 µM. It also gave a TGI (MDA-MB-435) of 39.7 µM, a TGI (SNB-19 CNS) of 35.8 µM and a TGI (KM20L2 colon) of 25.1 µM. The TGI (PC-3 prostate) was 25.2 µM, the TGI (NCI-H226 lung) was 26.5 µM and the TGI (A549 NSCLC) was greater than 100 µM. The TGI (HOP-62 NSCLC) was 37.5 µM, the TGI (SF-268 CNS) was 28.4 µM and the TGI (MALME-3M melanoma) was 22.3 µM. It also gave a TGI (HS 578T breast) of 52.8 µM, a TGI (NCI/ADR-RES ovarian) of 93 µM and a TGI (RPMI-8226 leukemia) greater than 78.6 µM. It also gave a TGI (MCF7 breast) of 19.7 µM, a TGI (MOLT-4 leukemia) of 55.6 µM and a TGI (OVCAR-8 ovarian) of 25 µM. The TGI (SK-MEL-5 melanoma) was 15.5 µM, the TGI (M14 melanoma) was 23 µM and the TGI (HOP-92 NSCLC) was 13.5 µM. It also gave a TGI (UO-31 renal) of 27.3 µM, a TGI (OVCAR-3 ovarian) of 20 µM and a TGI (NCI-H460 lung) of 26.5 µM. The TGI (NCI-H522 lung) was 17.6 µM, the TGI (DU-145 prostate) was greater than 100 µM and the TGI (NCI-H23 lung) was 17 µM. It also gave a TGI (786-0 renal) of 26.4 µM, a TGI (HCT-15 colon) of 31.1 µM and a TGI (TK-10 renal) of 32.1 µM. The TGI (OVCAR-4 ovarian) was 37.4 µM, the TGI (SK-MEL-28 melanoma) was 25.9 µM and the TGI (MDA-MB-231 breast) was 45.2 µM. For the same compound, the TGI (MDA-N) was 31.5 µM and the TGI (COLO 205 colon) was 26.8 µM.
Cc1ccc2oc(=O)cc(CC(=O)O)c2c1 was tested, and the TGI (SK-OV-3 ovarian) was greater than 100 µM, the TGI (RXF 393 renal) was greater than 100 µM and the TGI (U251 CNS) was greater than 100 µM. The TGI (UACC-62 melanoma) was greater than 100 µM, the TGI (HOP-18 NSCLC) was greater than 100 µM and the TGI (SK-MEL-2 melanoma) was greater than 100 µM. For the same compound, the TGI (OVCAR-5 ovarian) was greater than 100 µM, the TGI (SW-620 colon) was greater than 100 µM and the TGI (SF-295 CNS) was greater than 100 µM. The TGI (DLD-1 colon) was greater than 100 µM, the TGI (SN12C renal) was greater than 100 µM and the TGI (CCRF-CEM leukemia) was greater than 100 µM. The TGI (LOX IMVI melanoma) was greater than 100 µM, the TGI (A498 renal) was greater than 100 µM and the TGI (M19-MEL melanoma) was greater than 100 µM. It also gave a TGI (HT29 colon) greater than 100 µM, a TGI (XF 498 CNS) of 93.1 µM and a TGI (K-562 leukemia) greater than 100 µM. It also gave a TGI (SF-539 CNS) greater than 100 µM, a TGI (LXFL 529 NSCLC) greater than 100 µM and a TGI (HCT-116 colon) greater than 100 µM. The TGI (HL-60(TB) leukemia) was greater than 100 µM, the TGI (HCC-2998 colon) was greater than 100 µM and the TGI (DMS 273 small cell lung) was greater than 100 µM. The TGI (SNB-75 CNS) was greater than 100 µM, the TGI (CAKI-1 renal) was greater than 100 µM and the TGI (RXF-631 renal) was greater than 100 µM. It also gave a TGI (KM12 colon) greater than 100 µM, a TGI (ACHN renal) greater than 100 µM and a TGI (IGROV1 ovarian) greater than 100 µM. The TGI (EKVX NSCLC) was greater than 100 µM, the TGI (SNB-19 CNS) was greater than 100 µM and the TGI (KM20L2 colon) was greater than 100 µM. It also gave a TGI (NCI-H226 lung) greater than 100 µM, a TGI (A549 NSCLC) greater than 100 µM and a TGI (HOP-62 NSCLC) greater than 100 µM. The TGI (SF-268 CNS) was greater than 100 µM, the TGI (MALME-3M melanoma) was greater than 100 µM and the TGI (RPMI-8226 leukemia) was greater than 100 µM. It also gave a TGI (MOLT-4 leukemia) greater than 100 µM, a TGI (OVCAR-8 ovarian) greater than 100 µM and a TGI (SK-MEL-5 melanoma) greater than 100 µM. It also gave a TGI (M14 melanoma) greater than 100 µM, a TGI (HOP-92 NSCLC) greater than 100 µM and a TGI (OVCAR-3 ovarian) greater than 100 µM. The TGI (NCI-H460 lung) was greater than 100 µM, the TGI (NCI-H522 lung) was greater than 100 µM and the TGI (NCI-H23 lung) was greater than 100 µM. The TGI (786-0 renal) was greater than 100 µM, the TGI (HCT-15 colon) was greater than 100 µM and the TGI (TK-10 renal) was greater than 100 µM. For the same compound, the TGI (OVCAR-4 ovarian) was greater than 100 µM, the TGI (SK-MEL-28 melanoma) was greater than 100 µM and the TGI (COLO 205 colon) was greater than 100 µM.
